{"source": "patent US11857533B2", "about": "“Composition for preventing or treating obesity or lipid-related metabolic disorders” (Nexyon Biotech Co., Ltd., priority 2019, dated 2024)", "assay_type_in_all_cases": "in vivo, C57BL/6 mice", "key": {"[1]": {"system": "high-fat-diet-induced obesity mouse model", "assay": "Glucose tolerance test (GTT) in high-fat-diet-induced obesity mouse model", "details": "10 mg/kg orally for 11 weeks, 16 h fast, glucose 1 g/kg i.p., 0-120 min, vs vehicle", "description": "(§1) 8-week-old C57BL/6 mice were fed with a 60% high-fat diet, and a vehicle or irosustat (10 mg/kg) prepared in Preparation Example 1 was administered orally to the mice once a day for a total of 10 days.\nAn experiment was performed under the same conditions as in Experimental Example 1 above, except that the mice were fasted for 16 hours after oral administration of irosustat for 11 weeks, and glucose was injected intraperitoneally into the mice at a dose of 1 g/kg body weight. 0 min, 15 min, 30 min, 60 min, 90 min and 120 min after intraperitoneal injection, blood was collected from the tail of each mice and the glucose level in the blood was measured. However, during the glucose tolerance test, a stable environment was provided to the experimental animals. In addition, AUC (area under the glucose-time curve) was measured using the following Equation 1 and the results are shown in FIG. 8. In Equation 1, C0, C15, C30, C60, C90 and C120 are glucose levels measured at 0 min, 15 min, 30 min, 60 min, 90 min and 120 min, respectively. AUC=0.5×(0.5×C0+C15+C30+C60+C90+0.5×C120) [Equation 1]"}, "[2]": {"system": "high-fat-diet-induced obesity mouse model", "assay": "Hepatic steatosis amelioration, liver tissue microscopy, high-fat-diet-induced obesity mouse model", "details": "10 mg/kg orally once a day for 13 weeks, vs vehicle", "description": "as §1\nAn experiment was performed under the same conditions as in Experimental Example 1 above, except that the mice were euthanized after oral administration of irosustat for 13 weeks and hepatic tissue was taken and then imaged with a microscope."}, "[3]": {"system": "high-fat-diet-induced obesity mouse model", "assay": "Insulin tolerance test (ITT) in high-fat-diet-induced obesity mouse model", "details": "10 mg/kg orally for 12 weeks, 2 h fast, insulin 0.8 units/kg i.p., 0-120 min, vs vehicle", "description": "as §1\nAn experiment was performed under the same conditions as in Experimental Example 1 above, except that the mice were fasted for 2 hours after oral administration of irosustat for 12 weeks, and then the blood glucose levels of the mice were measured and insulin was injected intraperitoneally into the mice at a dose of 0.8 units/kg body weight. 0 min, 15 min, 30 min, 60 min, 90 min and 120 min after intraperitoneal injection, blood was collected from the tail of each mice and the glucose level in the blood was measured."}, "[4]": {"system": "high-fat-diet-induced obesity mouse model", "assay": "Fat mass and lean mass by DEXA in high-fat-diet-induced obesity mouse model", "details": "10 mg/kg orally once a day for 13 weeks, vs vehicle", "description": "as §1\nAn experiment was performed under the same conditions as in Experimental Example 1 above, except that the mice were imaged using DEXA (Dual-energy X-ray absorptiometry) after the vehicle or irosustat was administered orally to the mice for 13 weeks."}, "[5]": {"system": "high-fat-diet-induced obesity mouse model", "assay": "Adipocyte size in abdominal fat tissue, high-fat-diet-induced obesity mouse model", "details": "10 mg/kg orally once a day for 13 weeks, vs vehicle", "description": "as §1\nAn experiment was performed under the same conditions as in Experimental Example 1 above, except that the mice were euthanized after oral administration of irosustat for 13 weeks and abdominal fat tissue was taken and then imaged with a microscope. In addition, the areas of adipocytes in the abdominal fat tissue in the control group and the drug-administered group were measured, and the results are shown in FIG. 5."}, "[6]": {"system": "high-fat-diet-induced obesity mouse model", "assay": "Blood cholesterol and triglyceride levels in high-fat-diet-induced obesity mouse model", "details": "10 mg/kg orally once a day for 13 weeks, vs vehicle", "description": "as §1\nAn experiment was performed under the same conditions as in Experimental Example 1 above, except that the blood cholesterol and triglyceride levels in the control group and the drug-administered group were measured after oral administration of irosustat for 13 weeks. The results of measurement of the cholesterol and triglyceride levels are shown in FIGS. 11 and 12, respectively."}, "[7]": {"system": "high-fat-diet-induced obesity mouse model", "assay": "Weight loss effect in high-fat-diet-induced obesity mouse model", "details": "irosustat 10 mg/kg orally once a day, 60% high-fat diet", "description": "as §1"}}, "data": [{"smiles": "NS(=O)(=O)Oc1ccc2c3c(c(=O)oc2c1)CCCCC3", "note": "[irosustat, (6-oxo-8,9,10,11-tetrahydro-7H-cyclohepta[c]chromen-3-yl) sulfamate]", "values": [{"measurement": "blood glucose level in glucose tolerance test (time course and AUC)", "setting": "[1]", "value": "significantly decreased"}, {"measurement": "findings of hepatic steatosis caused by the high-fat diet", "setting": "[2]", "value": "significantly improved"}, {"measurement": "blood glucose level in insulin tolerance test (time course and AUC)", "setting": "[3]", "value": "significantly decreased"}, {"measurement": "fat mass", "setting": "[4]", "value": "significantly decreased"}, {"measurement": "size of adipocytes in abdominal fat tissue", "setting": "[5]", "value": "significantly decreased"}, {"measurement": "blood cholesterol level", "setting": "[6]", "value": "significantly decreased"}, {"measurement": "blood triglyceride level", "setting": "[6]", "value": "significantly decreased"}, {"measurement": "body weight", "setting": "[7]; C57BL/6 mice, vehicle control 36.4+/−3.4 g", "value": "31.4 ± 5.0", "unit": "g"}, {"measurement": "decrease of body weight compared to control group", "setting": "[7]; vs vehicle", "value": "about 14%"}]}]}
